Assay results reported in the NIST ThermoML archive (doi:10.1021/je5004466).
Numbers after ± are expanded uncertainties.

Conditions: Crystal; visual observation

SMILES: C[n+]1ccn(CCOCCOCCn2cc[n+](C)c2)c1.F[P-](F)(F)(F)(F)F.F[P-](F)(F)(F)(F)F
- Normal melting temperature: 91 ± 2 °C
